Columns and labels:
trypsin = assay: In vitro inhibition of trypsin induced proteolysis; assay type: biochemical; settings: bovine albumin substrate, no = no action under the experimental conditions
Protocol: Serine proteases are implicated in the pathophysiology of inflammatory diseases and trypsin is well known years ago [66]. Trypsin has been associated with host defense reactions and tissue damage. In this study, the novel derivatives have been evaluated towards trypsin and thrombin. Compounds 8 and 9 present high activity.
The Kunitz method was used after modification using bovine albumin was used as substrate for trypsin. In this assay, first 200 μL of 0.075 mg/mL trypsin and 780 μL of phosphate buffer pH 7.6 including the tested compounds (20 μL in DMSO, final concentration 100 μM) were pre-incubated at 37 °C for 20 min and then added 1 mL of albumin (stock solution 6 g/100 mL in phosphate buffer 0.1 M, pH 7.6) and incubated at 37 °C for 30 min. Secondly 1mLof 5% trichloroacetic acid was added to the incubated solution to stop the enzyme’s reaction and allowed to set at room temperature for 1 h. Then the solution was filtered, and the absorption of the filtrate was measured at 280 nm using salicylic acid as a reference compound [61] (Table 3).

[1] = Inhibition of linoleic acid peroxidation induced by AAPH; assay type: biochemical; settings: no = no action under the experimental conditions
Description: In the water soluble 2,2′-azobis(2-amidinopropane) hydrochloride (AAPH) the free radicals are produced in vitro through spontaneous thermal decomposition resembling to lipid peroxidation in cells due to the action of the peroxyl radicals. […] Compounds 11, 5, 4 and 3 presented no activity under the experimental conditions. From the experimental results it can be concluded that the 3,5-di-tert-butyl-group offers protection against lipid peroxidation. Electronic parameters expressed by the highest occupied molecular orbital (HOMO) describes better the biological activity (Equation (2)). log AAPH % = −22.042(± 8.731) HOMO − 4.853 (2.622)(2) n = 8, r = 0.930, r^2 = 0.864, q^2 = 0.567, s = 0.146, F1,8 = 5.783, α = 0.1
The oxidation reaction was started with 2,2′-Azobis(2-amidinopropane) dihydrochloride (AAPH) as a free radical initiator. Linoleic acid sodium salt was oxidized at 234 nm to a conjugated diene hydroperoxide resulting an increased absorption. Trolox was used as reference compound (93%) (Table 3).

[2] = Experimental lipophilicity as RM values by RPTLC; assay type: physicochemical; design: key: RM = log[(1/Rf) − 1], from Rf values by RPTLC; settings: methanol/water 70/30, 24 °C, average of at least 5 measurements
Description: Lipophilicity is a physicochemical parameter indicating the relationship of a drug to its biological activity. It affects ligand-target binding interactions, solubility, ADME (absorption, distribution, bioavailability, metabolism, and elimination) and toxicological effects. RPTLC (reverse phase thin layer chromatography) method was used for the experimental determination, as RM values. The RPTLC method is considered a secure, rapid and appropriate method for expressing the lipophilic character of a compound (Table 1).
Reversed phase TLC (RPTLC) was performed on silica gel plates impregnated with 5% (v/v) liquid paraffin in light petroleum ether. The mobile phase was a methanol/water mixture (70/30, v/v). The plates were developed in closed chromatography tanks saturated with the mobile phase at 24 °C. Spots were detected under UV light. Five individual measurements of Rf values were recorded and used for the determination of RM using the equation RM = log [(1/Rf) − 1] [59, 60, 62] (Table 2).

bovine thrombin = biological target: T1, bovine thrombin (Bos taurus, UniProt P00735); assay: In vitro inhibition of thrombin; assay type: biochemical; settings: substrate tosyl-Gly-Pro-Arg-pNA, no = no action under the experimental conditions; for inhibition at 100 µM: read-out: TH% 100 µM (thrombin inhibition)
T1 construct: purchased Sigma Chemical, Co. (St. Louis)
Protocol: It is well known that indandione derivatives exert their anticoagulant activity indirectly by inhibiting prothrombin synthesis in the liver. […] Derivatives 1, 2, 5, 8, 9, 10, and 12 were tested in vitro as possible thrombin inhibitors. Among the tested derivatives compound 8 presented 100% inhibition followed by compounds […] and 10.
As a substrate tosyl-Gly-Pro-Arg-pNA acetate salt was used at 1 mM final concentration. Compounds were dissolved at a final concentration of […] in a Tris-buffer (0.05 M Tris, 0.154 M NaCl, ethanol 5%, pH = 8.0). Three minutes after the addition of bovine thrombin (2.5 unit/mg), the reaction was ended by adding 1 mL acetic acid 50%. The absorption of the released p-nitro-aniline was measured at 405 nm (Table 3). Warfarin and Inogatran were used as reference compounds.

[3] = Superoxide anion radical scavenging activity (PMS/NADPH/NBT); assay type: biochemical; settings: 100 μM (stated for compound 3)
Protocol: The compounds have been tested to scavenge superoxide anion radicals. However, no results were recorded under the experimental conditions.
The superoxide anion producing system was set up by mixing PMS, NADPH, and air oxygen. The production of superoxide anion was estimated by the nitrobluetetrazole NBT method. The reaction mixture containing compounds, 3 μM PMS, 78 μM NADPH, and 25 μM NBT in […] phosphate buffer pH 7.4 was incubated for 2 min at room temperature and the absorption was measured at 560 nm against a blank containing PMS. The tested compounds were pre-incubated for 2 min before adding NADPH. Caffeic acid was used as an appropriate standard (76%).

Row | Structure (SMILES) | melting point [°C] | RM (±SD) [2] | inhibition at 100 µM (bovine thrombin) [%] | TH% 100 µM (thrombin inhibition) (bovine thrombin) | Iptr% 100 µM (inhibition of trypsin induced proteolysis) (trypsin) | AAPH% 100 µM (anti-lipid peroxidation) [1] | superoxide anion scavenging activity [3] [%]
1 | Cc1ccsc1C=C1C(=O)c2ccccc2C1=O [Compound 2, (Z)-2-((3-methylthiophen-2-yl)methylene)-1H-indene-1,3(2H)-dione] | 171 to 172 | 0.031 ± 0 |  |  | do not present any activity and no | 92% | 
2 | Cc1ccc(C=C2C(=O)c3ccccc3C2=O)o1 [Compound 3, (Z)-2-((5-methylfuran-2-yl)methylene)-1H-indene-1,3(2H)-dione] |  | 0.014 ± 0 | 39 |  | 17% | no activity and no | 20
3 | O=C1C(=Cc2ccccc2)C(=O)c2ccccc21 [Compound 4, 2-benzylidene-1H-indene-1,3(2H)-dione] |  | −0.615 ± 0.02 |  | no | 4% | no activity and no | 
4 | CN(C)c1ccc(/C=C\C=C2C(=O)c3ccccc3C2=O)cc1 [Compound 6, (Z)-2-(3-(4-(dimethylamino)phenyl)allylidene)-1H-indene-1,3(2H)-dione] | 85 to 87 | −0.527 ± 0 | 19 |  | 29% | 9% | 
5 | O=C1C(=Cc2cccc(Oc3ccccc3)c2)C(=O)c2ccccc21 [Compound 7, (Z)-2-(3-phenoxybenzylidene)-1H-indene-1,3(2H)-dione] | 143 to 145 | −0.196 ± 0.02 |  | no | 33% | 82% | 

Second part, led by results:

Row | melting point [°C] | RM (±SD) [2] | inhibition at 100 µM (bovine thrombin) [%] | TH% 100 µM (thrombin inhibition) (bovine thrombin) | Structure (SMILES) | Iptr% 100 µM (inhibition of trypsin induced proteolysis) (trypsin) | AAPH% 100 µM (anti-lipid peroxidation) [1] | superoxide anion scavenging activity [3] [%]
6 | 222 to 224 |  | 100 |  | O=C1C(=Cc2ccc(OCc3ccc(Br)cc3)cc2)C(=O)c2ccccc21 [Compound 8, (Z)-2-(4-((4-bromobenzyl)oxy)benzylidene)-1H-indene-1,3(2H)-dione] | 85% | 79% | 
7 | 52 to 54 | −1.038 ± 0 | 0 |  | CC(C)(C)c1cc(C=C2C(=O)c3ccccc3C2=O)c(O)c(C(C)(C)C)c1 [Compound 9, (Z)-2-(3,5-di-tert-butyl-2-hydroxybenzylidene)-1H-indene-1,3(2H)-dione] | 98% | 96% | 
8 | 98 to 100 | −0.103 ± 0 | 27 |  | CC(C)(C)c1cc(C=C2C(=O)c3ccccc3C2=O)cc(C(C)(C)C)c1O [Compound 10, (Z)-2-(3,5-di-tert-butyl-4-hydroxybenzylidene)-1H-indene-1,3(2H)-dione] | do not present any activity and no | 85% | 
9 | 283 to 285 | −0.134 ± 0.02 |  |  | O=C1C(=Cc2c[nH]c3ccccc23)C(=O)c2ccccc21 [Compound 12, (Z)-2-((1H-indol-3-yl)methylene)-1H-indene-1,3(2H)-dione] | do not present any activity and no | 31% | 

Reference: PMC6930570, “2-Arylidene-1-indandiones as Pleiotropic Agents with Antioxidant and Inhibitory Enzymes Activities” (Molecules, 2019)
